# Assay results reported in patent US4992426A, “Antiparasitic 5'-sulfamoyl nucleosides” (Nucleic Acid Research Institute, priority 1989, dated 1991).
# Entries after “also recorded” stand apart in the source; their conditions may differ.
# Columns and labels:
# certain parasites = settings: background; cited from earlier work
# [1] = background; cited from earlier work
# Leishmania donovani = assay: In vitro antiparasitic activity against Leishmania donovani; type: cell-based; settings: for IC50: Leishmania donovani, 120 h, 5 days at 26° C., read-out: ED50 (the source's name)
# Experimental: (§1) The antiparasitic activities of the 1-(5'-0-sulfamoyl-β-D-ribofuranosyl)[1,2,4]triazolo 3-carboxamide, 3-thiocarboxamide and 3-carbonitrile compounds of the invention are shown in various in vitro and in vivo systems. […] These are representative of the protozoan diseases: leishmaniasis, trypanosomiasis, giardiasis and trichomoniasis.
# (§2) Leishmania donovani (ATCC #30142)) and Trypanosoma qambiense (TH114, obtained from R. Brun, Schweizer Tropeninstitut, Basel, Switzerland) were grown in THOSMEM, HOSMEM and PPDM-79 media respectively as described in J. J. Marr, R. L. Berens and D. J. Nelson, J. Science. 202, 1018 (1978), J. J. Marr, D. J. Nelson and R. L. Berens, Biochim. Biophys. Acta, 544, 360 (1978) and W. R. Fish, J. J. Marr and R. L. Berens, Biochim. Biophys. Acta, 714, 422 (1982). For drug sensitivity studies these organisms were grown in 10 ml of their respective media in 25 cm^2 tissue culture flasks. Cultures were inoculated to a cell density of […] and incubated for 5 days at 26° C. in a 5% CO2 atmosphere. Final cell density was determined by counting the cells on a Coulter Counter (Model ZBI); control cultures reached a final density of ≈2·10^7 /ml.
# (§3) Drug stock solutions were prepared by dissolving the compounds of the invention in 0.1N NaOH and adjusting the final concentration to 2 mg/ml based on extinction coefficient. Drug was added to respective culture media (<2% v/v) and the media filter sterilized. Doses effective against 50% (ED50) and 90% (ED90) were determined by triplicate counting of organisms exposed to various drug concentrations and determining a mean value. Results were expressed as a percentage control.
# Trypanosoma gambiense = assay: In vitro antiparasitic activity against Trypanosoma gambiense; type: cell-based; settings: for IC50: Trypanosoma brucei, GAMBIENSE, 120 h, 5 days at 26° C., read-out: ED50 (the source's name)
# Experimental: as §1, §2, §3
# Giardia lamblia = assay: In vitro antiparasitic activity against Giardia lamblia; type: cell-based; settings: for IC50: Giardia duodenalis, 72 h, 3 days at 37° C., read-out: ED50 (the source's name); for relative activity against G. lamblia (in words): compared with compound 2
# Experimental: as §1
# (§4) Giardia lamblia (PI, ATCC #30888) and Trichomonas vaqinalis (ATCC #3301) were grown in modified TYI medium in 13×100 mm screw cap tubes as described in R. L. Berens and J. J. Marr, Biochem. Pharm., 35, 4191 (1986). Cultures were inoculated at a density of 10^4 and incubated for 3 days at 37° C.; control cultures reached densities of ≈1-2·10^6 for G. lamblia and ≈6-7·10^6 for T. vaqinalis. These parasites were counted by chilling tubes on ice for 30 min., then reading the optical density at 650 nm in a Gilford 300-N micro-sample spectrophotometer. Their cell number was obtained by comparing the absorbance to a standard curve constructed from numbers obtained by counting cells in a hemocytometer.
# as §3
# Trichomonas vaginalis = assay: In vitro antiparasitic activity against Trichomonas vaginalis; type: cell-based; settings: for IC50: Trichomonas vaginalis, 72 h, 3 days at 37° C., read-out: ED50 (the source's name)
# Experimental: as §1, §4, §3
# Toxicity to U937 cells = type: cell-based; settings: human, u937 cells; @ 1μg/ml; read-out: % Control (U937 cells)
# U937 cells = assay: Toxicity to U937 cells; type: cell-based; settings: 1μg/ml
# T. brucei EATRO 110 = assay: Antiparasitic activity against T. brucei EATRO 110 in animals (mouse model); type: in vivo, Trypanosoma brucei; settings: mice; for % Cured / Average Survival / Range of Survival: once daily for 3 days
# Experimental: Antiparasitic activity of the compounds of the invention in animals against T. brucei EATRO 110 was determined as described in C. J. Bacchi, R. L. Berens, H. C. Nathan, R. S. Klein, I. A. Elegbe, K. V. Rao, P. P. McCann and J. J. Marr, Antimicrob: Agents Chemother., 31, 1403 (1987) utilizing the mouse model described therein.
# Mice (groups of 5) were infected with 2 × 10^5 trypanosomes and
# treatment commenced 24 h post inoculation. Drugs were given once daily by
# the route indicated for 3 days.
# L. donovani = assay: Antileishmanial activity in animals (mouse model of visceral leishmaniasis); type: in vivo, Leishmania donovani; settings: mice; for LDUs in Liver / Suppression (%): one week
# Experimental: Antiparasitic activity of the compounds of the invention in animals against L. donovani was determined in a manner similar to that previously described J. S. Keithly and S. G. Langreth, Amer. J. Trop. Med. Hyg., 32, 485 (1983) for a hamster model. Briefly, mice were infected with 5×10^7 stationary phase promastigotes subcultured in Schneider's drosophila medium with 15% heat inactivated fetal bovine serum. The compounds of the invention were administered by gavage nine days after infection and continued for one week. Positive controls received Pentostam intraperitoneally. Infected, untreated controls received water orally but no intraperitoneal sham injections. Mice were necropsied sixteen days after infection (seven days after the beginning of drug treatment).
# % Suppression = 100 100(LDUs of experimental/LDUs of control)
# [2] = tested on: Leishmania donovani, Trypanosoma qambiense, Giardia lamblia and Trichomonas vaqinalis; assay: In vitro antiparasitic activity against various pathogens (overall); type: cell-based; settings: compounds 2, 3 and 4 compared
# Experimental: as §1
# Leishmania donovani (ATCC #30142)) and Trypanosoma qambiense (TH114, obtained from R. Brun, Schweizer Tropeninstitut, Basel, Switzerland) were grown in THOSMEM, HOSMEM and PPDM-79 media respectively as described in J. J. Marr, R. L. Berens and D. J. Nelson, J. Science. 202, 1018 (1978), J. J. Marr, D. J. Nelson and R. L. Berens, Biochim. Biophys. […] Final cell density was determined by counting the cells on a Coulter Counter (Model ZBI); control cultures reached a final density of ≈2·10^7 /ml.
# as §4, with “Cultures were inoculated at a density of 10^4 and incubated for 3 days at 37° C.; control cultures reached densities of ≈1-2·10^6 for G. lamblia and ≈6-7·10^6 for T. vaqinalis.” left out, “hemocytometer. […]” for “hemocytometer.”
# adenosine kinase = settings: certain human cell lines in-vitro; cited from earlier work
# [3] = background; cited from earlier work; remark: listed apart in the source
compound,measurement,setting,value
Nc1ncnc2c1ncn2[C@@H]1O[C@H](COS(N)(=O)=O)[C@@H](O)[C@H]1O [5'-O-sulfamoyl adenosine],antiparasitic activity (in words),certain parasites,active in-vitro against certain parasites
same,toxicity (in words),[1],extremely toxic
"NC(=O)c1ncn([C@@H]2O[C@H](COS(N)(=O)=O)[C@@H](O)[C@H]2O)n1 [Compound 2, 1-(5'-O-Sulfamoyl-β-D-ribofuranosyl)[1,2,4]triazole-3-carboxamide]",antileishmanial activity in vitro (in words),Leishmania donovani,significant activity as an antileishmanial agent
same,IC50,Leishmania donovani,0.03 µg/mL
same,activity against T. gambiense (in words),Trypanosoma gambiense,shows antitrypanosomal activity; also recorded: killed by low concentrations
same,IC50,Trypanosoma gambiense,0.01 to 0.05 µg/mL
same,IC50,Giardia lamblia,5 to 10 µg/mL
same,IC50,Trichomonas vaginalis,> 25 µg/mL
same,viability,Toxicity to U937 cells,10%
same,toxicity to U937 cells (in words),U937 cells,toxic
same,% Cured,T. brucei EATRO 110; 1 mg/kg (i.p.),0%
same,Average Survival,T. brucei EATRO 110; 1 mg/kg (i.p.),4.6 days
same,Range of Survival,T. brucei EATRO 110; 1 mg/kg (i.p.),4 to 5 days
same,% Cured,T. brucei EATRO 110; 5 mg/kg (i.p.),0%
same,Average Survival,T. brucei EATRO 110; 5 mg/kg (i.p.),4.8 days
same,Range of Survival,T. brucei EATRO 110; 5 mg/kg (i.p.),4 to 6 days
same,% Cured,T. brucei EATRO 110; 10 mg/kg (i.p.),0%
same,Average Survival,T. brucei EATRO 110; 10 mg/kg (i.p.),7.4 days
same,Range of Survival,T. brucei EATRO 110; 10 mg/kg (i.p.),4 to 11 days
same,% Cured,T. brucei EATRO 110; 20 mg/kg (i.p.),0%
same,Average Survival,T. brucei EATRO 110; 20 mg/kg (i.p.),7.4 days
same,Range of Survival,T. brucei EATRO 110; 20 mg/kg (i.p.),4 to 11 days
same,% Cured,T. brucei EATRO 110; 50 mg/kg (i.p.),0%
same,Average Survival,T. brucei EATRO 110; 50 mg/kg (i.p.),6.4 days
same,Range of Survival,T. brucei EATRO 110; 50 mg/kg (i.p.),4 to 10 days
same,% Cured,T. brucei EATRO 110; 50 mg/kg (i.v.),0%
same,Average Survival,T. brucei EATRO 110; 50 mg/kg (i.v.),6.4 days
same,Range of Survival,T. brucei EATRO 110; 50 mg/kg (i.v.),4 to 12 days
same,% Cured,T. brucei EATRO 110; 50 mg/kg (p.o.),0%
same,Average Survival,T. brucei EATRO 110; 50 mg/kg (p.o.),11.6 days
same,Range of Survival,T. brucei EATRO 110; 50 mg/kg (p.o.),10 to 14 days
same,activity against T. brucei in animals (in words),"T. brucei EATRO 110; i.p., i.v., oral","exhibits this activity when administered orally; also recorded: shows intraperitoneal, intravenous and oral activity; also recorded: oral activity of compound 2 is greater than intraperitoneal activity; also recorded: prolonged survival at all dosages tested"
same,LDUs in Liver,"L. donovani; 10 mg/kg/day, gavage",1244 ± 469 LDUs
same,Suppression (%),"L. donovani; 10 mg/kg/day, gavage",18%
same,LDUs in Liver,"L. donovani; 20 mg/kg/day, gavage",765 ± 133 LDUs
same,Suppression (%),"L. donovani; 20 mg/kg/day, gavage",50%
same,LDUs in Liver,"L. donovani; 50 mg/kg/day, gavage",501 ± 276 LDUs
same,Suppression (%),"L. donovani; 50 mg/kg/day, gavage",67%
same,antileishmanial activity in animals (in words),L. donovani; compared with Pentostam,good suppression of the parasites in the livers; also recorded: response equivalent to that of optimized Pentostam; also recorded: as active as Pentostam; also recorded: as active as pentavalent antimony
same,relative antiparasitic activity in vitro (in words),[2],the most active and had the lowest ED50 against these organisms
"NC(=S)c1ncn([C@@H]2O[C@H](COS(N)(=O)=O)[C@@H](O)[C@H]2O)n1 [Compound 3, 1-(5'-O-Sulfamoyl-β-D-ribofuranosyl)[1,2,4]triazole-3-thiocarboxamide]",IC50,Leishmania donovani,2.5 µg/mL
same,IC50,Trypanosoma gambiense,0.5 µg/mL
same,IC50,Giardia lamblia,> 25 µg/mL
same,relative activity against G. lamblia (in words),Giardia lamblia,about the same as for compound 2
same,IC50,Trichomonas vaginalis,15 µg/mL
same,relative activity against T. vaginalis (in words),Trichomonas vaginalis; compared with compounds 2 or 4,greater activity; also recorded: greater activity than compounds 2 or 4
"N#Cc1ncn([C@@H]2O[C@H](COS(N)(=O)=O)[C@@H](O)[C@H]2O)n1 [Compound 4, 1-(5'-0-Sulfamoyl-β-D-ribofuranosyl)[1,2,4]triazole-3-carbonitrile]",IC50,Leishmania donovani,1 to 5 µg/mL
same,IC50,Trypanosoma gambiense,1 to 5 µg/mL
same,IC50,Giardia lamblia,> 25 µg/mL
same,relative activity against G. lamblia (in words),Giardia lamblia,about the same as for compound 2
same,IC50,Trichomonas vaginalis,> 25 µg/mL
"O.O.O.O.O.O.O.O.O.O=C([O-])[C@@H]1[O][Sb](=[O])([O][Sb]2(=[O])[O][C@H]([C@H](O)CO)[C@H](O)[C@H](C(=O)[O-])[O]2)[O][C@H]([C@H](O)CO)[C@@H]1O.[Na+].[Na+].[Na+] (stereo partly drawn) [Pentostam, reference compound]",LDUs in Liver,"L. donovani; 50 mg/kg/day, intraperitoneal",411 ± 245 LDUs
same,Suppression (%),"L. donovani; 50 mg/kg/day, intraperitoneal",73%
"NC(=O)c1ncn([C@@H]2O[C@H](CO)[C@@H](O)[C@H]2O)n1 [Ribavirin, 1-(β-D-Ribofuranosyl)[1,2,4]triazole-3-carboxamide]",antiparasitic activity (in words),certain parasites,does not have antiparasitic activity
same,toxicity (in words),[1],relatively non-toxic
same,substrate for adenosine kinase (in words),adenosine kinase,substrate for adenosine kinase
same,antiviral activity (in words),[3],broad spectrum antiviral agent
